≈ marks a conversion by molar mass, not a printed value. Read-outs that look alike come from different tables or passages of the source.
Assays:
MRSA and MSSA = experiment: antibacterial activity (MIC) by agar plate dilution method, MRSA and MSSA strains together; format: cell-based, Staphylococcus aureus; details: MRSA and MSSA, Table 2
Method: The screening of the present invention may be carried out according to the agar plate dilution method designated by the Japan Society of Chemotherapy (Chemotherapy 29(1), 76-79 (1981)). Mueller-Hinton agar base semi-synthetic medium may be used for a plate culture medium for a sensitivity test together with an inoculating bacteria solution which may be prepared by culturing bacteria to be tested at 37° C. for 20 hours diluted with 8.5% by isotonic sodium chloride solution to 10^6 CFU/ml. Diluted β-lactam solutions are prepared by two times serial dilution. 1 ml of the diluted β-lactam solution and 1 ml of a predetermined concentration of a sample to be tested are added to 8 ml of the plate culture medium for a sensitivity test. To the resultant plate culture medium for sensitivity test, the bacteria are inoculated using a microplanter (SAKUMASEISAKUSYO Co.), cultured for 20 hours at 37° C. followed by assessing for a minimum inhibition concentration (MIC). […]
Antibacterial activity is determined for flavones including flavone, flavonol, flavanone, isoflavone, catechin and calchone, as follows:
Flavones were dissolved in methanol and the others were dissolved in 0.1 N NaOH. A method for determination of antibacterial activity is, as described above, an agar plate dilution method designated by the Japan Society of Chemotherapy (Chemotherapy 29(1), 76-79 (1981)) to determine MIC value. MIC80 is a concentration at which a strain is prohibited to proliferate by 80% and MIC50 is a concentration at which a strain is prohibited to proliferate by 50%.

MSSA = experiment: antibacterial activity (MIC) by agar plate dilution method, MSSA strains; format: cell-based, Methicillin-sensitive Staphylooccus aureus
How it was run: (§1)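 Mueller-Hinton agar plates containing 2-fold serial β-lactam dilutions plus a fixed concentration of test sample; inoculum 10^6 CFU/ml, 37° C. for 20 hours. MIC read as concentration inhibiting growth; MIC80 and MIC50 = 80% and 50% growth inhibition. Flavones dissolved in methanol, others in 0.1 N NaOH.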

MRSA [1] = experiment: antibacterial activity (MIC) by agar plate dilution method, MRSA strains; format: cell-based, methicillin-resistant Staphylococcus aureus
How it was run: as §1

MRSA [2] = experiment: antibacterial activity of antibiotics alone and in the presence of apigenin (4 μg/ml), MRSA; format: cell-based, methicillin-resistant Staphylococcus aureus; details: apigenin 4 μg/ml or less than its MIC
Method: The screening of the present invention may be carried out according to the agar plate dilution method designated by the Japan Society of Chemotherapy (Chemotherapy 29(1), 76-79 (1981)). Mueller-Hinton agar base semi-synthetic medium may be used for a plate culture medium for a sensitivity test together with an inoculating bacteria solution which may be prepared by culturing bacteria to be tested at 37° C. for 20 hours diluted with 8.5% by isotonic sodium chloride solution to 10^6 CFU/ml. Diluted β-lactam solutions are prepared by two times serial dilution. 1 ml of the diluted β-lactam solution and 1 ml of a predetermined concentration of a sample to be tested are added to 8 ml of the plate culture medium for a sensitivity test. To the resultant plate culture medium for sensitivity test, the bacteria are inoculated using a microplanter (SAKUMASEISAKUSYO Co.), cultured for 20 hours at 37° C. followed by assessing for a minimum inhibition concentration (MIC).
(D) Then use of 4 μg/ml of apigenin and other antibiotics at the same time was studied. The antibiotics are penicillin , ampicillin, cephalothin, cefoxitin, cefuroxime, cefotaxime, vancomycin, streptomycin, chloramphenicol, kanamycin, erythromycin, nalixic acid and tetracycline.

Compound: O=c1cc(-c2ccc(O)cc2)oc2cc(O)cc(O)c12 [Apigenin, apigenin]
- antibacterial activity (in words) (MRSA and MSSA): showed antibacterial activity
- MIC (MSSA; MSSA strain No. 21): > 250 µg/mL
- MIC (MSSA; MSSA strain No. 22): > 250 µg/mL
- MIC (MSSA; MSSA strain No. 24): 3.9 µg/mL (≈ 14.4 µM)
- MIC (MSSA; MSSA strain No. 24, listed as SB-1): 31.3 µg/mL (≈ 116 µM)
- MIC (MSSA; MSSA strain No. 25): 3.9 µg/mL (≈ 14.4 µM)
- MIC (MSSA; MSSA strain No. 27): 15.6 µg/mL (≈ 57.7 µM)
- MIC (MSSA; MSSA strain No. 27, listed as SB-1): 31.3 µg/mL (≈ 116 µM)
- MIC50 (MSSA; Staphylococcus aureus, 20 h, MSSA (7 strains), read-out: MIC50): 15.6 µg/mL (≈ 57.7 µM)
- MIC (MSSA; Staphylococcus aureus, MSSA, 20 h, MSSA strain No. 21, read-out: MIC): 250 µg/mL (≈ 925 µM)
- MIC (MSSA; Staphylococcus aureus, MSSA, 20 h, MSSA strain No. 22, read-out: MIC): 250 µg/mL (≈ 925 µM)
- MIC (MSSA; Staphylococcus aureus, MSSA, 20 h, MSSA strain No. 23, read-out: MIC): 15.6 µg/mL (≈ 57.7 µM)
- MIC (MSSA; Staphylococcus aureus, MSSA, 20 h, MSSA strain No. 25, read-out: MIC): 7.8 µg/mL (≈ 28.9 µM)
- MIC (MSSA; Staphylococcus aureus, MSSA, 20 h, MSSA strain No. 26, read-out: MIC): 15.6 µg/mL (≈ 57.7 µM)
- MIC (MRSA [1]; MRSA strain No. 1): 7.8 µg/mL (≈ 28.9 µM)
- MIC (MRSA [1]; MRSA strain No. 2): 3.9 µg/mL (≈ 14.4 µM)
- MIC (MRSA [1]; MRSA strain No. 3): 7.8 µg/mL (≈ 28.9 µM)
- MIC (MRSA [1]; MRSA strain No. 4): 7.8 µg/mL (≈ 28.9 µM)
- MIC (MRSA [1]; MRSA strain No. 5): 3.9 µg/mL (≈ 14.4 µM)
- MIC (MRSA [1]; MRSA strain No. 6): 3.9 µg/mL (≈ 14.4 µM)
- MIC (MRSA [1]; MRSA strain No. 8): 3.9 µg/mL (≈ 14.4 µM)
- MIC (MRSA [1]; MRSA strain No. 9): 3.9 µg/mL (≈ 14.4 µM)
- MIC (MRSA [1]; MRSA strain No. 9, listed as SB-1): 15.6 µg/mL (≈ 57.7 µM)
- MIC (MRSA [1]; MRSA strain No. 13): 7.8 µg/mL (≈ 28.9 µM)
- MIC (MRSA [1]; MRSA strain No. 13, listed as SB-1): 31.3 µg/mL (≈ 116 µM)
- MIC (MRSA [1]; MRSA strain No. 14): 7.8 µg/mL (≈ 28.9 µM)
- MIC (MRSA [1]; MRSA strain No. 14, listed as SB-1): 31.3 µg/mL (≈ 116 µM)
- MIC (MRSA [1]; MRSA strain No. 15): 7.8 µg/mL (≈ 28.9 µM)
- MIC (MRSA [1]; MRSA strain No. 16): 7.8 µg/mL (≈ 28.9 µM)
- MIC (MRSA [1]; MRSA strain No. 17): 3.9 µg/mL (≈ 14.4 µM)
- MIC50 (MRSA [1]; Staphylococcus aureus, 20 h, MRSA (20 strains), read-out: MIC50): 7.8 µg/mL (≈ 28.9 µM)
- MIC (MRSA [1]; Staphylococcus aureus, MRSA, 20 h, MRSA strain No. 1, read-out: MIC): 15.6 µg/mL (≈ 57.7 µM)
- MIC (MRSA [1]; Staphylococcus aureus, MRSA, 20 h, MRSA strain No. 2, read-out: MIC): 7.8 µg/mL (≈ 28.9 µM)
- MIC (MRSA [1]; Staphylococcus aureus, MRSA, 20 h, MRSA strain No. 3, read-out: MIC): 15.6 µg/mL (≈ 57.7 µM)
- MIC (MRSA [1]; Staphylococcus aureus, MRSA, 20 h, MRSA strain No. 4, read-out: MIC): 15.6 µg/mL (≈ 57.7 µM)
- MIC (MRSA [1]; Staphylococcus aureus, MRSA, 20 h, MRSA strain No. 5, read-out: MIC): 7.8 µg/mL (≈ 28.9 µM)
- MIC (MRSA [1]; Staphylococcus aureus, MRSA, 20 h, MRSA strain No. 6, read-out: MIC): 7.8 µg/mL (≈ 28.9 µM)
- MIC (MRSA [1]; Staphylococcus aureus, MRSA, 20 h, MRSA strain No. 7, read-out: MIC): 3.9 µg/mL (≈ 14.4 µM)
- MIC (MRSA [1]; Staphylococcus aureus, MRSA, 20 h, MRSA strain No. 8, read-out: MIC): 7.8 µg/mL (≈ 28.9 µM)
- MIC (MRSA [1]; Staphylococcus aureus, MRSA, 20 h, MRSA strain No. 10, read-out: MIC): 15.6 µg/mL (≈ 57.7 µM)
- MIC (MRSA [1]; Staphylococcus aureus, MRSA, 20 h, MRSA strain No. 11, read-out: MIC): > 250 µg/mL
- MIC (MRSA [1]; Staphylococcus aureus, MRSA, 20 h, MRSA strain No. 12, read-out: MIC): > 250 µg/mL
- MIC (MRSA [1]; Staphylococcus aureus, MRSA, 20 h, MRSA strain No. 15, read-out: MIC): 15.6 µg/mL (≈ 57.7 µM)
- MIC (MRSA [1]; Staphylococcus aureus, MRSA, 20 h, MRSA strain No. 16, read-out: MIC): 15.6 µg/mL (≈ 57.7 µM)
- MIC (MRSA [1]; Staphylococcus aureus, MRSA, 20 h, MRSA strain No. 17, read-out: MIC): 7.8 µg/mL (≈ 28.9 µM)
- MIC (MRSA [1]; Staphylococcus aureus, MRSA, 20 h, MRSA strain No. 18, read-out: MIC): > 250 µg/mL
- MIC (MRSA [1]; Staphylococcus aureus, MRSA, 20 h, MRSA strain No. 19, read-out: MIC): > 250 µg/mL
- MIC (MRSA [1]; Staphylococcus aureus, MRSA, 20 h, MRSA strain No. 20, read-out: MIC): 31.3 µg/mL (≈ 116 µM)
- inhibition of β-lactam resistant MRSA / improvement of antibacterial effect with apigenin (in words) (MRSA [2]): could improve antibacterial effect of methicillin on MRSA
